Test results published in ChEMBL document CHEMBL1765025, “4-Aminothiazolyl analogues of GE2270 A: antibacterial lead finding” (2011).
In brackets after ≈: the same amount, converted by molar mass.

Columns and labels:
Assay type in all cases: functional
Staphylococcus = test: Antibacterial activity against methicillin-resistant Staphylococcus
Enterococcus faecalis = test: Antibacterial activity against Enterococcus faecalis ATCC 29212 by CLSI M100-S19 method
Enterococcus faecium = test: Antibacterial activity against Enterococcus faecium by CLSI M100-S19 method
Streptococcus pyogenes = test: Antibacterial activity against Streptococcus pyogenes ATCC BAA-595 by CLSI M100-S19 method
Staphylococcus aureus = test: Antibacterial activity against methicillin-resistant Staphylococcus aureus by CLSI M100-S19 method
Enterococcus = test: Antibacterial activity against vancomycin-resistant Enterococcus

`CNC(=O)C[C@@H]1NC(=O)c2csc(n2)-c2ccc(-c3nc(C4=N[C@H](C(=O)N5CCC[C@H]5C(N)=O)CO4)cs3)nc2-c2csc(n2)-c2csc(n2)[C@H]([C@@H](O)c2ccccc2)NC(=O)CNC(=O)c2nc(sc2COC)[C@H](C(C)C)NC(=O)c2nc1sc2C` was tested, and the MIC (Staphylococcus) was 1 µg/mL (≈ 0.775 µM), the MIC (Enterococcus faecalis) was 0.5 µg/mL (≈ 0.387 µM) and the MIC (Enterococcus faecium) was 0.25 µg/mL (≈ 0.194 µM). It also gave an MIC (Streptococcus pyogenes) of 1 µg/mL (≈ 0.775 µM), an MIC (Staphylococcus aureus) of 0.25 µg/mL (≈ 0.194 µM) and an MIC (Enterococcus) of 1 µg/mL (≈ 0.775 µM).

`CNC(=O)C[C@@H]1NC(=O)c2csc(n2)-c2ccc(-c3nc(NC(=O)OC(C)(C)C)cs3)nc2-c2csc(n2)-c2csc(n2)[C@H]([C@@H](O)c2ccccc2)NC(=O)CNC(=O)c2nc(sc2COC)[C@H](C(C)C)NC(=O)c2nc1sc2C` was tested, and the MIC (Enterococcus faecalis) was greater than 32 µg/mL, the MIC (Enterococcus faecium) was greater than 32 µg/mL and the MIC (Streptococcus pyogenes) was greater than 32 µg/mL. The MIC (Staphylococcus aureus) was greater than 32 µg/mL.

`CNC(=O)C[C@@H]1NC(=O)c2csc(n2)-c2ccc(-c3nc(NS(C)(=O)=O)cs3)nc2-c2csc(n2)-c2csc(n2)[C@H]([C@@H](O)c2ccccc2)NC(=O)CNC(=O)c2nc(sc2COC)[C@H](C(C)C)NC(=O)c2nc1sc2C` showed an MIC (Enterococcus faecalis) of 2 µg/mL (≈ 1.7 µM), an MIC (Enterococcus faecium) of 4 µg/mL (≈ 3.41 µM) and an MIC (Streptococcus pyogenes) greater than 32 µg/mL. The MIC (Staphylococcus aureus) was 2 µg/mL (≈ 1.7 µM).

With `CNC(=O)C[C@@H]1NC(=O)c2csc(n2)-c2ccc(C(N)=O)nc2-c2csc(n2)-c2csc(n2)[C@H]([C@@H](O)c2ccccc2)NC(=O)CNC(=O)c2nc(sc2COC)[C@H](C(C)C)NC(=O)c2nc1sc2C` the MIC (Enterococcus faecalis) was 32 µg/mL (≈ 30.7 µM), the MIC (Enterococcus faecium) was greater than 32 µg/mL and the MIC (Streptococcus pyogenes) was greater than 32 µg/mL. For the same molecule, the MIC (Staphylococcus aureus) was greater than 32 µg/mL.

Work on `CNC(=O)C[C@@H]1NC(=O)c2csc(n2)-c2ccc(-c3nc(NC(C)=O)cs3)nc2-c2csc(n2)-c2csc(n2)[C@H]([C@@H](O)c2ccccc2)NC(=O)CNC(=O)c2nc(sc2COC)[C@H](C(C)C)NC(=O)c2nc1sc2C` yielded an MIC (Enterococcus faecalis) of 1 µg/mL (≈ 0.878 µM), an MIC (Enterococcus faecium) of 1 µg/mL (≈ 0.878 µM) and an MIC (Streptococcus pyogenes) greater than 32 µg/mL. The MIC (Staphylococcus aureus) was 2 µg/mL (≈ 1.76 µM).
